# Source: patent US8580122B2, “Hybrid chemical/mechanical method and apparatus for inactivating and removing pharmaceuticals and other contaminants from water” (priority 2004, dated 2013)
# Structures can show the parent of a compound that is named as a salt. Where two headings read alike, the source gives them in different places.
# Assays:
# [1] = cited from earlier work; for biodegradability in the CBT: result in words; for biodegradation in the CBT, test prolonged: prolonged to 40 days
# [2] = laboratory-scale activated sludge plants; cited from earlier work
# [3] = cited from earlier work; for biodegradability in the ZWT: result in words
# [4] = eight German STPs; cited from earlier work
# [5] = result in words; cited from earlier work
# [6] = result in words; cited from earlier work; remark: listed apart in the source
# [7] = cited from earlier work
# [8] = cited from earlier work; remark: listed apart in the source
# [9] = result in words; cited from earlier work; remark: listed apart in the source
# [10] = wastewater treatment plant; cited from earlier work
# [11] = epilimnion of Lake Greifensee; cited from earlier work
# [12] = result in words; cited from earlier work; remark: listed apart in the source
# [13] = result in words; cited from earlier work; remark: listed apart in the source
# fecal coliforms = test: sulfur dioxide treatment of effluent, Saticoy-Jose Florez Wastewater Treatment Plant; conditions: effluent undergoing sulfur dioxide treatment
# From the text: The destruction of odor causing microbes feeding on the water stops further CO2 production, and may be employed where the wastewater treatment plant is mandated to reduce these carbon dioxide emissions. Also, if there is significant carbon in the suspended solids, most perchlorates and chlorates will have been reduced on contact with the solids. The separation and disposal of the solids also removes most of the adsorbed microbes. Under this wastewater treatment scenario, the sulfur dioxide reduction treatment is more for acidification, inactivating of certain chemicals such as Chromium VI susceptible to acid reduction, adding sulfurous and sulfate ions, and chemical dewatering of the solids. […] This disinfection level is suitable in California for gray water land application. Consequently, the sulfur dioxide was used primarily to acid reduce pharmaceuticals, and condition the solids and separated wastewater for land application.
# [14] = computer model, binding to sludge solids; cited from earlier work
# [15] = pilot sewage plant and anoxic biofilm reactor
structure (smiles),measurement,setting,value
O=P1(N(CCCl)CCCl)NCCCO1 (stereo not shown) [cyclophosphamide],biodegradability in the CBT,[1],poor biodegradability
same,biodegradability,[2],poor biodegradability
same,biodegradability in the ZWT,[3],poor biodegradability
CC(=O)Nc1c(I)c(NC(C)=O)c(I)c(C(=O)O)c1I [diatrizoate],degradation or absorption during sewage treatment,[4],not significantly degraded or absorbed
CN/C(=N/CCSCc1nc[nH]c1C)NC#N [cimetidine],direct photolysis,[5],resistant to direct photolysis
COCC(=O)Nc1c(I)c(C(=O)NCC(O)CO)c(I)c(C(=O)N(C)CC(O)CO)c1I (stereo not shown) [iopromide],degradation or absorption during sewage treatment,[4],not significantly degraded or absorbed
same,photodegradation,[6],amenable to photodegradation
C[C@H](O)C(=O)Nc1c(I)c(C(=O)NC(CO)CO)c(I)c(C(=O)NC(CO)CO)c1I [iopamidol],degradation or absorption during sewage treatment,[4],not significantly degraded or absorbed
O=C(O)Cc1ccccc1Nc1c(Cl)cccc1Cl [diclofenac],biological degradation,[7]; [15],partially degraded
same,degraded,[8]; entering a Swiss lake,up to 90%
same,reduction on incubation in the dark,[8]; fortified lake water,no reduction
O=c1[nH]cc(F)c(=O)[nH]1 [5-fluorouracil],biodegradability in the CBT,[1],not biodegradable
same,biodegradability in the ZWT,[3],not biodegradable
O=C(O)c1ccccc1O [salicylic acid],biodegradability,[9],biodegradable
"Oc1cc(Cl)ccc1Oc1ccc(Cl)cc1Cl [triclosan, 2,4,4′-trichloro2′-hydroxyphenyl ether]",fate: biological degradation,[10],79%
same,overall elimination rate due to photochemical degradation,[11],0.03 day⁻¹
S=C1SCN(Cc2ccccc2)CN1Cc1ccccc1 [sulbentine],light sensitivity,[12],light sensitive
O=C(O)c1cn(C2CC2)c2cc(N3CCNCC3)c(F)cc2c1=O [ciprofloxacin],biodegradability in the CBT,[1],None of the test compounds met the criteria for ready biodegradability
same,biodegradability,[13],none of the compounds were biodegraded
CC1(C)S[C@@H]2[C@H](NC(=O)Cc3ccccc3)C(=O)N2[C@H]1C(=O)O [penicillin G],"biodegradation in the CBT, test prolonged",[1],35%
same,biodegradation in the CBT (removed / biodegraded),"[1]; regular test period, 28 days printed for penicillin G",approximately 27%
same,biodegradability in the CBT,[1],None of the test compounds met the criteria for ready biodegradability
O=S=O [sulfur dioxide],fecal coliforms in treated effluent,fecal coliforms,< 2 MPN
CC(C)Cc1ccc(C(C)C(=O)O)cc1 (stereo not shown) [ibuprofen],biological degradation,[7]; oxic biofilm reactor,high degree of degradation
same,biological degradation,[7]; [15],partially degraded
Cc1cccc(N(C)C(=S)Oc2ccc3ccccc3c2)c1 [tolnaftate],light sensitivity,[12],light sensitive
C[C@@H](O)[C@H]1C(=O)N2C(C(=O)O)=C(S[C@@H]3CN[C@H](C(=O)N(C)C)C3)[C@H](C)[C@H]12 [meropenem],biodegradability in the CBT,[1],None of the test compounds met the criteria for ready biodegradability
Nc1ccn([C@@H]2O[C@H](CO)[C@@H](O)C2(F)F)c(=O)n1 [gemcitabine],"biodegradation in the CBT, test prolonged",[1],45%
same,"degree of biodegradation, test prolonged","[3]; prolonged to 40 days, test read from the sentence before",80%
C=C[C@H]1C[N@@]2CC[C@H]1C[C@H]2[C@H](O)c1ccnc2ccc(OC)cc12 [quinine sulfate],predicted sorption potential,[14],high capacity to bind to solids
CN(C/C=C/c1ccccc1)Cc1cccc2ccccc12 [naftifine],light sensitivity,[12],light sensitive
"CN(CC(O)CO)C(=O)c1c(I)c(N)c(I)c(C(=O)NCC(O)CO)c1I (stereo not shown) [5-amino-N,N′bis(2,3-dihydroxypropyl)-2,4,6-triiodo-N-methyliso-phthalamide]",photodegradation,[6],faster rate of photolysis than the parent compound
CN(C(=O)CO)c1c(I)c(C(=O)NCC(O)CO)c(I)c(C(=O)NCC(O)CO)c1I (stereo not shown) [iomeprol],degradation or absorption during sewage treatment,[4],not significantly degraded or absorbed
Oc1ccc(Cl)c2cccnc12 [cloxiquin],light sensitivity,[12],light sensitive
CN(C)CCn1nnnc1SCC1=C(C(=O)O)N2C(=O)[C@@H](NC(=O)Cc3csc(N)n3)[C@H]2SC1 [cefotiam],biodegradability in the CBT,[1],None of the test compounds met the criteria for ready biodegradability
Cc1cccc(Nc2ccccc2C(=O)O)c1C [mefenamic acid],predicted sorption potential,[14],high capacity to bind to solids
CC(=O)Nc1ccc(O)cc1 [paracetamol],biodegradability,[9],biodegradable
